Measured values published in patent publication US20240408223A1 (REGENERON PHARMACEUTICALS, INC., priority 2017, published 2024).
Values after ≈ are worked out from the molar mass of the structure shown. *1 amine or outer side, *2 acyl side, *3 side chain or, on linkers, in order; H or OH if unused. Where a SMILES comes first, the peptide text is derived from it. [ ]: non-standard residue; d: D form. The star is where a group is joined. X2 = O=C(COC1CCCCCc2c1nnn2[C@@H]1O[C@H](CO)[C@H](O)[C@H](O)[C@H]1O)*; NH(1-deoxy-D-glucityl) = OC[C@@H](O)[C@@H](O)[C@H](O)[C@@H](O)CN*; Dolaproine = CO[C@@H]([C@@H]1CCCN1)[C@@H](C)C(=O)O; X3 = O=C(COC1CCCCCc2c1nnn2CCOCCOCCOCCOCCOCCO)*; Dil = CC[C@H](C)[C@H](NC)[C@@H](CC(=O)O)OC; PABC = O=C(OCc1ccc(N[*:1])cc1)[*:2]; DBCO = C1#Cc2ccccc2N(*)Cc2ccccc21; X1 = C[C@@H](N*)[C@@H](O)c1ccccc1; Cit = NC(=O)NCCC[C@H](N)C(=O)O; PEG4 = NCCOCCOCCOCCOCCC(=O)O; Suc = O=C(CCC(=O)[*:2])[*:1]; NMeV = CN[C@H](C(=O)O)C(C)C

Experiments:
[1] = pH stability in buffers, determined by LC-MS; assay type: physicochemical; conditions: pH7.4 and 8 buffer, RT, Table 3-1
Method: pH stability was assessed as follows. 0.1 mg of sample was dissolved into 0.2-0.3 mL of DMSO, and the resulting solution was added dropwise into different pH buffers (1 mL) while maintain clear solutions during testing time period. The samples were collected from several time points (e.g., over 72 hours), and pH stability was determined by LC-MS. pH buffer was prepared as follows: pH 8.0 sodium borate buffer: Add 9.534 g Sodium borate decahydrate, 1.461 g Sodium chloride, and 0.393 g DTPA to 900 mL distilled water, make sure all powers dissolve completely, then make final volume to 1 L by adding water. pH 7.4 sodium borate buffer: Add […], 9.534 g Sodium borate decahydrate, 1.461 g Sodium chloride, and 0.393 g DTPA to 900 mL distilled water, make sure all powers dissolve completely, then make final volume to 1 L by adding water. pH 5.0 succinate acid buffer: Add 10 mM succinate acid to 150 mL distilled water, and then change the pH to pH5.0 by adding 0.5M NaOH, then make final volume to 250 mL by adding water. pH 7.4 PBS buffer: commercially available. Stability was assessed at 72 hours by LCMS.

[2] = Solubility test in water, LCMS against standard curve; conditions: Solubility (mg/mL), in water, Table 3-1
Method: (§1) The DMSO solution (1 mg/mL, 0.5 mL) was diluted with water (4.5 mL) to generate solution A (0.1 mg/mL, 5 mL, 0.5 mg). Solution A (0.1 mg/mL, 0.5 mL) was diluted with water (4.5 mL) to generate solution B (0.01 mg/mL, 5 mL, 0.05 mg). Solution B (0.01 mg/mL, 0.5 mL) was diluted with water (4.5 mL) to generate solution C (1 μg/mL, 5 mL, 5 μg). Solution C (1 μg/mL, 0.5 mL) was diluted with water (4.5 mL) to generate solution D (0.1 μg/mL, 5 mL, 0.5 μg). The testing sample (0.05 mg) was suspended in water (1 mL), and was sonicated for 5-30 min to dissolve the sample. If no clear solution was observed, the resulting suspension was centrifuged and the clear supernatant solution was collected for analysis. All the standard solutions A, B, C, D and sample solutions were tested using same method on the same LC-MS instrument. Solubility was assessed by LCMS and calculated based on a standard curve.

Human liver Cathepsin B = Human liver Cathepsin B (Homo sapiens, UniProt P07858); experiment: Cathepsin B cleavage assay of linker-payloads; conditions: Table 1D
Method: For the assay, the linker-payload stock solution (10 mM of linker-payload in DMSO) was added into a solution of 100 mM NaOAc, 10 mM dithiothreitol, at pH5 to obtain a 50 μM substrate solution. […] The Cathepsin B and substrate solution was mixed with and without 10 mM of a Cathepsin B inhibitor (CA074; APE Bio, Cat #A1926), and incubated at 37° C. for 4 hours. Following the 4 hour incubation, acetic acid and then acetonitrile were added to stop the reaction. The quenched samples then underwent centrifugation at 14,000 rpm. Aliquots of the resultant supernatants were then diluted with equal volume of water and analyzed by LC/MS to determine the amount of payload released.

Method for physchem: as §1

Row | Structure (SMILES) | pH Stability [1] | solubility (physchem) [µg/mL] | solubility [2] [µg/mL] | CapB cleavage rate (%) at 4 hrs (Human liver Cathepsin B) [%] | solubility (physchem; Solubility) [µg/mL] | solubility (physchem; Solubility (mg/mL)) [µg/mL]
1 | CC[C@H](C)[C@@H]([C@@H](CC(=O)N1CCC[C@H]1[C@H](OC)[C@@H](C)C(=O)N[C@H](C)[C@@H](O)c1ccccc1)OC)N(C)C(=O)[C@@H](NC(=O)[C@H](C(C)C)N(C)C(=O)OCc1ccc(NC(=O)[C@H](CCCNC(N)=O)NC(=O)[C@@H](NC(=O)[C@@H](CCCCNC(=O)COC2CCCCCc3c2nnn3CCOCCOCCOCCOCCOCCO)NC(=O)CCOCCOCCOCCOCCNC(=O)CCC(=O)N2Cc3ccccc3C#Cc3ccccc32)C(C)C)cc1)C(C)C (some centres unmarked) [1a] ({DBCO-Suc-PEG4}-[dK](X3)V[Cit][PABC][NMeV]V[Dil][Dolaproine]-X1) | Y (stable in pH7.4 and 8 buffer at RT for more than 3 days) | 170 (≈ 75.3 µM) | – | – | – | –
2 | CCCC1O[C@@H]2C[C@H]3[C@@H]4C[C@H](F)C5=CC(=O)C=C[C@]5(C)[C@@]4(F)[C@@H](O)C[C@]3(C)[C@]2(C(=O)CNC(=O)OCc2ccc(NC(=O)[C@H](CCCNC(N)=O)NC(=O)[C@@H](NC(=O)CCOCCOCCOCCOCCNC(=O)CCC(=O)N3Cc4ccccc4C#Cc4ccccc43)C(C)C)cc2)O1 (some centres unmarked) [10a] | Y (stable in pH7.4 and 8 buffer at RT for more than 3 days) | – | 20 (≈ 14.2 µM) | 18.6 | – | –
3 | CCCC1O[C@@H]2C[C@H]3[C@@H]4C[C@H](F)C5=CC(=O)C=C[C@]5(C)[C@@]4(F)[C@@H](O)C[C@]3(C)[C@]2(C(=O)COc2ccc(NC(=O)OCc3ccc(NC(=O)[C@H](CCCNC(N)=O)NC(=O)[C@@H](NC(=O)CCOCCOCCOCCOCCNC(=O)CCC(=O)N4Cc5ccccc5C#Cc5ccccc54)C(C)C)cc3)cc2)O1 (some centres unmarked) [10c] | Y (stable in pH7.4 and 8 buffer at RT for more than 3 days) | – | – | <5 | < 10 | < 100
4 | CC[C@H](C)[C@@H]([C@@H](CC(=O)N1CCC[C@H]1[C@H](OC)[C@@H](C)C(=O)N[C@H](C)[C@@H](O)c1ccccc1)OC)N(C)C(=O)[C@@H](NC(=O)[C@H](C(C)C)N(C)C(=O)OCc1ccc(NC(=O)[C@H](CCCNC(N)=O)NC(=O)[C@@H](NC(=O)CCOCCOCCOCCOCCNC(=O)CCC(=O)N2Cc3ccccc3C#Cc3ccccc32)C(C)C)cc1)C(C)C [10d] ({DBCO-Suc-PEG4}-V[Cit][PABC][NMeV]V[Dil][Dolaproine]-X1) | Y (stable in pH7.4 and 8 buffer at RT for more than 3 days) | < 100 | – | – | – | –
5 | CC[C@H](C)[C@@H]([C@@H](CC(=O)N1CCC[C@H]1[C@H](OC)[C@@H](C)C(=O)N[C@H](C)[C@@H](O)c1ccccc1)OC)N(C)C(=O)[C@@H](NC(=O)[C@H](C(C)C)N(C)C(=O)OCc1ccc(NC(=O)[C@H](CCCNC(N)=O)NC(=O)[C@@H](NC(=O)[C@@H](CCCCNC(=O)COC2CCCCCc3c2nnn3[C@@H]2O[C@H](CO)[C@H](O)[C@H](O)[C@H]2O)NC(=O)CCOCCOCCOCCOCCNC(=O)CCC(=O)N2Cc3ccccc3C#Cc3ccccc32)C(C)C)cc1)C(C)C (some centres unmarked) [Ie-1] ({DBCO-Suc-PEG4}-[dK](X2)V[Cit][PABC][NMeV]V[Dil][Dolaproine]-X1) | Y (stable in pH7.4 and 8 buffer at RT for more than 3 days) | 400 (≈ 186 µM) | – | 72 | – | –
6 | CC[C@H](C)[C@@H]([C@@H](CC(=O)N1CCC[C@H]1[C@H](OC)[C@@H](C)C(=O)N[C@H](C)[C@@H](O)c1ccccc1)OC)N(C)C(=O)[C@@H](NC(=O)[C@H](C(C)C)N(C)C(=O)OCc1ccc(NC(=O)[C@H](CCCNC(N)=O)NC(=O)[C@@H](NC(=O)[C@@H](CCC(=O)NC[C@H](O)[C@@H](O)[C@H](O)[C@H](O)CO)NC(=O)CCOCCOCCOCCOCCNC(=O)CCC(=O)N2Cc3ccccc3C#Cc3ccccc32)C(C)C)cc1)C(C)C [Ig] ({DBCO-Suc-PEG4}-[dE](NH(1-deoxy-D-glucityl))V[Cit][PABC][NMeV]V[Dil][Dolaproine]-X1) | Y (stable in pH7.4 and 8 buffer at RT for more than 3 days) | 280 (≈ 144 µM) | – | 70 | – | –
